{"source": "PubChem BioAssay (NCI)", "experiment_in_all_cases": "inhibition of tumour cell growth, NCI panel, 48 h", "key": {"[1]": {"system": "NCI-H226 lung"}, "[2]": {"system": "NCI-H23 lung"}, "[3]": {"system": "NCI-H460 lung"}, "[4]": {"system": "NCI-H522 lung"}, "[5]": {"system": "NCI/ADR-RES ovarian"}, "[6]": {"system": "OVCAR-3 ovarian"}, "[7]": {"system": "OVCAR-4 ovarian"}, "[8]": {"system": "OVCAR-5 ovarian"}, "[9]": {"system": "OVCAR-8 ovarian"}, "[10]": {"system": "PC-3 prostate"}, "[11]": {"system": "RPMI-8226 leukemia"}, "[12]": {"system": "RXF 393 renal"}, "[13]": {"system": "SF-268 CNS"}, "[14]": {"system": "SF-295 CNS"}, "[15]": {"system": "SF-539 CNS"}, "[16]": {"system": "SK-MEL-2 melanoma"}, "[17]": {"system": "SK-MEL-28 melanoma"}, "[18]": {"system": "SK-MEL-5 melanoma"}, "[19]": {"system": "SK-OV-3 ovarian"}, "[20]": {"system": "SN12C renal"}, "[21]": {"system": "SNB-19 CNS"}, "[22]": {"system": "SNB-75 CNS"}, "[23]": {"system": "SR leukemia"}, "[24]": {"system": "SW-620 colon"}, "[25]": {"system": "T-47D breast"}, "[26]": {"system": "TK-10 renal"}, "[27]": {"system": "U251 CNS"}, "[28]": {"system": "UACC-257 melanoma"}, "[29]": {"system": "UACC-62 melanoma"}, "[30]": {"system": "UO-31 renal"}}, "note": "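Assay format: 96-well plates, 48-hour exposure. GI50 is the concentration that inhibits growth by half. Definition used: TGI = concentration required for complete inhibition of growth.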", "data": [{"compound": "O=C(CN1CCN(c2ncnc3c2cnn3-c2ccccc2)CC1)Nc1nncs1", "values": [{"measurement": "TGI", "setting": "[1]", "result": 5.14, "unit": "µM"}, {"measurement": "GI50", "setting": "[2]", "result": 1.74, "unit": "µM"}, {"measurement": "TGI", "setting": "[2]", "result": 3.57, "unit": "µM"}, {"measurement": "GI50", "setting": "[3]", "result": 4.25, "unit": "µM"}, {"measurement": "TGI", "setting": "[3]", "result": 14.7, "unit": "µM"}, {"measurement": "GI50", "setting": "[4]", "result": 1.62, "unit": "µM"}, {"measurement": "TGI", "setting": "[4]", "result": 3.09, "unit": "µM"}, {"measurement": "GI50", "setting": "[5]", "result": 1.77, "unit": "µM"}, {"measurement": "TGI", "setting": "[5]", "result": 3.69, "unit": "µM"}, {"measurement": "GI50", "setting": "[6]", "result": 1.93, "unit": "µM"}, {"measurement": "TGI", "setting": "[6]", "result": 3.67, "unit": "µM"}, {"measurement": "GI50", "setting": "[7]", "result": 10.3, "unit": "µM"}, {"measurement": "TGI", "setting": "[7]", "result": 28.1, "unit": "µM"}, {"measurement": "GI50", "setting": "[8]", "result": 6.41, "unit": "µM"}, {"measurement": "TGI", "setting": "[8]", "result": 19.3, "unit": "µM"}, {"measurement": "GI50", "setting": "[9]", "result": 1.93, "unit": "µM"}, {"measurement": "TGI", "setting": "[9]", "result": 4.02, "unit": "µM"}, {"measurement": "GI50", "setting": "[10]", "result": 4.33, "unit": "µM"}, {"measurement": "TGI", "setting": "[10]", "result": 17.1, "unit": "µM"}, {"measurement": "GI50", "setting": "[11]", "result": 2.83, "unit": "µM"}, {"measurement": "TGI", "setting": "[11]", "result": 8.67, "unit": "µM"}, {"measurement": "GI50", "setting": "[12]", "result": 1.68, "unit": "µM"}, {"measurement": "TGI", "setting": "[12]", "result": 3.31, "unit": "µM"}, {"measurement": "GI50", "setting": "[13]", "result": 4.79, "unit": "µM"}, {"measurement": "TGI", "setting": "[13]", "result": 19.3, "unit": "µM"}, {"measurement": "GI50", "setting": "[14]", "result": 10.3, "unit": "µM"}, {"measurement": "TGI", "setting": "[14]", "result": 22.3, "unit": "µM"}, {"measurement": "GI50", "setting": "[15]", "result": 1.76, "unit": "µM"}, {"measurement": "TGI", "setting": "[15]", "result": 3.32, "unit": "µM"}, {"measurement": "GI50", "setting": "[16]", "result": 12.6, "unit": "µM"}, {"measurement": "TGI", "setting": "[16]", "result": 25.8, "unit": "µM"}, {"measurement": "GI50", "setting": "[17]", "result": 13.9, "unit": "µM"}, {"measurement": "TGI", "setting": "[17]", "result": 26.9, "unit": "µM"}, {"measurement": "GI50", "setting": "[18]", "result": 10.2, "unit": "µM"}, {"measurement": "TGI", "setting": "[18]", "result": 21.9, "unit": "µM"}, {"measurement": "GI50", "setting": "[19]", "result": 12.5, "unit": "µM"}, {"measurement": "TGI", "setting": "[19]", "result": 25, "unit": "µM"}, {"measurement": "GI50", "setting": "[20]", "result": 1.94, "unit": "µM"}, {"measurement": "TGI", "setting": "[20]", "result": 5.06, "unit": "µM"}, {"measurement": "GI50", "setting": "[21]", "result": 12.2, "unit": "µM"}, {"measurement": "TGI", "setting": "[21]", "result": 24.6, "unit": "µM"}, {"measurement": "GI50", "setting": "[22]", "result": 15.1, "unit": "µM"}, {"measurement": "TGI", "setting": "[22]", "result": 30.5, "unit": "µM"}, {"measurement": "GI50", "setting": "[23]", "result": 2.11, "unit": "µM"}, {"measurement": "TGI", "setting": "[23]", "result": 5.26, "unit": "µM"}, {"measurement": "GI50", "setting": "[24]", "result": 4.99, "unit": "µM"}, {"measurement": "TGI", "setting": "[24]", "result": 16.1, "unit": "µM"}, {"measurement": "GI50", "setting": "[25]", "result": 7.93, "unit": "µM"}, {"measurement": "TGI", "setting": "[25]", "result": 24.1, "unit": "µM"}, {"measurement": "GI50", "setting": "[26]", "result": 3.09, "unit": "µM"}, {"measurement": "TGI", "setting": "[26]", "result": 6.14, "unit": "µM"}, {"measurement": "GI50", "setting": "[27]", "result": 1.92, "unit": "µM"}, {"measurement": "TGI", "setting": "[27]", "result": 3.99, "unit": "µM"}, {"measurement": "GI50", "setting": "[28]", "result": 14.1, "unit": "µM"}, {"measurement": "TGI", "setting": "[28]", "result": 28.1, "unit": "µM"}, {"measurement": "GI50", "setting": "[29]", "result": 4.97, "unit": "µM"}, {"measurement": "TGI", "setting": "[29]", "result": 18.7, "unit": "µM"}, {"measurement": "GI50", "setting": "[30]", "result": 1.17, "unit": "µM"}, {"measurement": "TGI", "setting": "[30]", "result": 2.39, "unit": "µM"}]}]}
